“Also recorded” adds a separate entry of the source. Where a SMILES comes first, the peptide text is derived from it. [ ]: non-standard residue; d: D form. Nle = CCCC[C@H](N)C(=O)O
Tested on: cutaneous melanogenesis
Assay: double-blind study of melanostimulant effects by topical administration in humans
Assay type: in vivo
Details: gel at 10 ppm, topical twice a day for 3 weeks, listed as peptide no. 1
Procedure: 2. A double-blind study of the melanostimulant effects by topical administration of peptide no. 1 in the table was carried out in humans.
A gel of peptide no. 1 at 10 ppm and its placebo were applied, twice a day for 3 weeks, to the inner face of the forearms of twelve normal volunteers who had given their informed consent. Since the arms were not exposed to the sun, they were given an exactly calibrated artificial solar exposure of 0.6 MED (minimum erythema dose) once a day from the 16th to 20th day.
24 h after the final treatment, a clinical evaluation of the treated regions was carried out blind, and the intensity of coloration was marked according to a five-level index scale. A biopsy sample was then taken in order to quantify the melanin produced and to evaluate the ultrastructural consequences of the treatment.
The quantification of the epidermal melanin was carried out on histological sections by image analysis after labeling with AgNO3. Only the active layers of the epidermis were analyzed (from the stratum germinativum to the stratum spinosum), using the Leica Quantimet after digitization (Sony CCD camera).
The ultrastructural analysis of the melanocytes and melanosomes was carried out by electron microscopy. A double-contrast technique was used on the thin sections, which were then observed at magnifications ranging up to ×12000 (Jeol 1200EX).

CCCC[C@H](NC(C)=O)C(=O)N[C@@H](C)C(=O)N[C@@H](Cc1c[nH]cn1)C(=O)N[C@H](Cc1ccccc1)C(=O)N[C@@H](CCCNC(=N)N)C(=O)N[C@@H](Cc1c[nH]c2ccccc12)C(N)=O [Compound 1, Ac-Nle-Ala-His-DPhe-Arg-Trp-NH2] (Ac-[Nle]AH[dF]RW-NH2)
local tolerance (clinical observation of the treated regions): no sign of intolerance; also recorded: completely tolerated at the local level
